Measured values as given in US20110152166A1, “METHOD OF MODULATION OF PROTEIN PHOSPHORYLATION-DEPENDENT CONFORMATIONAL TRANSITIONS WITH LOW MOLECULAR WEIGHT COMPOUNDS” (priority 2006, published 2011).
Changes are numbered by the printed parent chain. Ends that are not written are not given here.

Tests used:
Assay in all cases: PDK1 activity assay with T308tide
Format in all cases: biochemical
[1] = target: T1, GST-PDK1 [Gln150Lys] (Homo sapiens, UniProt O15530, Q150K)
T1 construct: different protein constructs, comprising the full length protein or the catalytic domain alone; made in house; host or cells: HEK293 cells (pEBG-2T-PDK1 mutant)
T1 sequence (O15530 1-556 Q150K): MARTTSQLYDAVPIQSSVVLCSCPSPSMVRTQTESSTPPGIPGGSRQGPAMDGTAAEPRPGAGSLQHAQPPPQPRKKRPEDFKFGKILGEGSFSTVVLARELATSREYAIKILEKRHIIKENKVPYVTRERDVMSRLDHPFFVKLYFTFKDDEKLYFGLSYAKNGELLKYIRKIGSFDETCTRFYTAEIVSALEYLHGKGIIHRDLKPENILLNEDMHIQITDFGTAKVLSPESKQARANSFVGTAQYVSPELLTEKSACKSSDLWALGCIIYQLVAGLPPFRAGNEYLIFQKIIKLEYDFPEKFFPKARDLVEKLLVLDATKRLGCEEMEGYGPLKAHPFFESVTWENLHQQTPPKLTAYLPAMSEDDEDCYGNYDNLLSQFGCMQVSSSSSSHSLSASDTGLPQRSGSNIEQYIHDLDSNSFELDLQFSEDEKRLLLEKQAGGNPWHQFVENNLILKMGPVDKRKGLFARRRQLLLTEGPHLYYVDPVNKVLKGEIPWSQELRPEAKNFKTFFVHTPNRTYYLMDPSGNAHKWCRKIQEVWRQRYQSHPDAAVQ

[2] = target: T2, GST-PDK1 [Val124Leu] (Homo sapiens, UniProt O15530, V124L)
T2 construct: different protein constructs, comprising the full length protein or the catalytic domain alone; made in house; host or cells: HEK293 cells (pEBG-2T-PDK1 mutant)
T2 sequence (O15530 1-556 V124L): T1 sequence (O15530 1-556 Q150K) with V124L, K150Q

[3] = target: T3, PDK1 50-360 (Homo sapiens, UniProt O15530); conditions: for AC50 / Max. activity: PDK1 50-360; for activation of PDK1 CD wt (in words): catalytic domain 50-360 wild type
T3 construct: the catalytic domain of PDK1 (50-359) produced in SF9 insect cells; His-tag (pFastbac-HT, TEV site) (N, cleaved yes); made in house; host or cells: Sf9 insect cells (baculovirus, pFastbac-HT)
T3 sequence (O15530 50-359): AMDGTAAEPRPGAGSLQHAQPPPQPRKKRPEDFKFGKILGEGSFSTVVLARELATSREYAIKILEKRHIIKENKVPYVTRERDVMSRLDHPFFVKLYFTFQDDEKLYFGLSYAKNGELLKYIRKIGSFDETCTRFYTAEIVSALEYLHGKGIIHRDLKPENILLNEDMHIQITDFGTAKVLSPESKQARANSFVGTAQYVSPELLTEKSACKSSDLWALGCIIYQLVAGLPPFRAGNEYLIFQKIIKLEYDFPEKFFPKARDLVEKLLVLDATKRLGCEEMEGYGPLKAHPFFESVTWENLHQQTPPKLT

| AC50 [1] | Max. activity [1] | AC50 [2] | Max. activity [2] | AC50 [3] | Max. activity [3] | activation of PDK1 CD wt (in words) [3] | Compound |
| --- | --- | --- | --- | --- | --- | --- | --- |
| 15 ± 4 µM | 1.37 ± 0.06 U/mg | 180 ± 60 µM | 1.1 ± 0.13 U/mg | 38 ± 8 µM | 3.46 ± 0.19 U/mg | activated | O=C(O)CSC(CC(=O)c1ccc(Cl)cc1)c1ccccc1 (centres unmarked) [Compound 1] |
| 0.29 ± 0.05 µM | 2.7 ± 0.2 U/mg | 0.35 ± 0.2 µM | 0.59 ± 0.04 U/mg | 0.17 ± 0.09 µM | 2.62 ± 0.18 U/mg | activated | REPRILSEEEQEMFRDFDYIADWC [PIFtide, reference compound] |
